One series has as its system ASICs. The conditions noted are these: ref [45]; cited from earlier work.
Series [1] concerns CD-1 mice. In words: Acetic-acid-induced writhings (acid-induced muscle pain model). The series is classed as in vivo, mouse. The settings on record: 1 mg/kg i.v. How it is done:
(§1) The animal studies were performed under the European Commission’s legislation (Directives 86/609/EEC, 2010/63/EU), the National Standard of the Russian Federation “Good Laboratory Practice” (GOST P 53434-2009, Moscow, Russia), and Committee on Ethics of Laboratory Animal Handling № 05/21, 20 September 2021 and 08/21, 30 December 2021 protocols (PIBOC FEB RAS). Adult female CD-1 mice weighing 25 ± 2 g were subjected to a 12 h light–dark cycle at room temperature and with ad libitum access to food and water. There were seven or eight individuals in each group.
Three groups of animals were treated with peptides at doses of 0.01, 0.1 and 1 mg/kg (intravenously) 15 min before an injection of 300 μL of a 0.7% acetic acid solution. The control animal group received an identical volume of saline. The positive control group received intravenously a dose 1 mg/kg of diclofenac (Hemofarm A.D., Vršac, Serbia), a commercial drug of the NSAID group. Fifteen minutes immediately after acid administration, the number of writhings and the writhing time (time in a spasmodic state) were counted.

Another series has as its system ASIC3. The conditions noted are these: cited from earlier work. The source says:
Some non-selective, low-molecular ligands of ASIC channels, acting at micromolar concentrations, are enabled for clinical medicine and veterinary procedure: local anesthetics (lidocaine and tetracaine), nonsteroidal anti-inflammatory drugs (NSAIDs) (ibuprofen, aspirin, and diclofenac), potassium-sparing diuretic amiloride and the antibacterial/antiparasitic drug, diminazene. […] Preclinical and clinical stu ... || Venom-derived toxins affecting ASICs may cause pain or, on the contrary, have analgesic, anti-inflammatory or neuroprotective effects. The first identified peptide agonist of ASIC channels, from the venom of the coral snake Micrurus tener tener, is a complex of MitTxα (Kunitz fold) and MitTxβ (phospholipase A2-like protein) subunits.

For series [2], the system named is CD-1 mice. In words: Hot plate test. Type of series: in vivo, mouse. The settings on record: 52 °C. As for the experimental part:
as §1
Thermal analgesia was tested with a Hot Plate Analgesia Meter (IITC Life Science Inc., Woodland Hills, CA, USA). Measurements were carried out 15 min after the intravenous injection of peptides at doses of 0.1 and 1 mg/kg. The control animals received 300 µL of sterile saline. Metamizole (Pharmstandard, Russia) was used as a positive control administrated intraperitoneally at a dose of 500 mg/kg 30 min before testing. Animals were placed individually on the preheated surface of a plate (up to 52 °C), and nociceptive reactions, withdrawal, or licking of the front and hind legs were recorded.
A general note: In hot-plate and tail-flick tests a longer latency is read as antinociception.

The subject of series [3] is CD-1 mice. In words: Carrageenan-induced paw edema. The series is classed as in vivo, mouse. The conditions noted are these: 1 mg/kg. How it is done:
as §1
Three groups of animals were treated with peptides at doses of 0.01, 0.1 and 1 mg/kg (intravenously) 30 min before the induction of inflammation. The control animal group received an identical volume of saline. The positive control group received diclofenac (Hemofarm A.D., Vršac, Serbia) at a dose of 1 mg/kg. The edema was induced by a 20 µL injection of 1.5% solution of λ-carrageenan (Sigma Aldrich, St. Louis, MO, USA) in the hind paw pad. The resulting edema was measured after 1, 2, 4 and 24 h using a plethysmometer (Ugo Basile, Gemonio (VA), Italy). The anti-inflammatory threshold was estimated as a decrease in the paw volume and volume growth index (%), calculated using the formula: Volume Growth Index (%) = [(VC − Vi)/Vi] × 100, (1), where VC is the volume of the paw after the introduction of carrageenan and Vi is the volume of the paw before the introduction of carrageenan.
(In general: The carrageenan paw model is a standard test of acute inflammation.)

Series [4] concerns ASIC1a, ASIC1b, ASIC2a and ASIC3 channels. The conditions noted are these: ref [7],[13]; read-out: IC50, inhibition of ASIC1a, ASIC1b, ASIC2a and ASIC3 channels; cited from earlier work. The source says: Some non-selective, low-molecular ligands of ASIC channels, acting at micromolar concentrations, are enabled for clinical medicine and veterinary procedure: local anesthetics (lidocaine and tetracaine), nonsteroidal anti-inflammatory drugs (NSAIDs) (ibuprofen, aspirin, and diclofenac), potassium-sparing diuretic amiloride and the antibacterial/antiparasitic drug, diminazene. […] Preclinical and clinical stu ...

For the next series, the system named is ASIC1b. The conditions noted are these: ref [36]; cited from earlier work.
For series [5] the following is noted: 1 mg/kg intramuscularly; ref [34]; cited from earlier work. The source says:
(§2) Contradictory results concerning the involvement of ASIC1a channels in the antidepressant activity and the in vivo effects of ASIC1a inhibitors, namely tarantula toxin, PcTx1, have been published earlier. Thus, in a number of experiments, it was shown that ASI ...

For series [6] the following is noted: ref [34]; cited from earlier work.
The conditions of series [7]: cited from earlier work. The source says:
(§3) Venom-derived toxins affecting ASICs may cause pain or, on the contrary, have analgesic, anti-inflammatory or neuroprotective effects. The first identified peptide agonist of ASIC channels, from the venom of the coral snake Micrurus tener tener, is a complex of MitTxα (Kunitz fold) and MitTxβ (phospholipase A2-like protein) subunits.

Another series deals with NaV1.8. Also noted: method as in PMID 29134638. The conditions noted are these: ref [36]; cited from earlier work.
Another series concerns hERG channels. Also noted: method as in PMID 29134638. The conditions noted are these: ref [36]; cited from earlier work.
A further series deals with ASIC2a. The settings on record: ref [36]; cited from earlier work.
In a further series the test system is rats. The conditions noted are these: ref [53]; cited from earlier work.
Text: as §2

Another series has as its system ASIC1a. The conditions noted are these: ref [20]; cited from earlier work.
Text: as §3

For series [8] the following is noted: eight hours after a stroke; ref [18],[19]; cited from earlier work.

Like-named read-outs stand apart in the source and are kept apart here.

The values below come from paper PMC10221320.

For `O=C(O)Cc1ccccc1Nc1c(Cl)cccc1Cl` [Diclofenac], in the series on ASICs, the “inflammation-induced expression of ASICs” value is “decreases the inflammation-induced expression of ASICs”. Further, the “effect on writhings, positive control” value in the series on CD-1 mice [1] is listed as “reduced the number of writhings”. The IC50 in the series on ASIC3 (ref [45], read-out: IC50, sustained current component of ASIC3) is 92000 ± 19000 nM. Further, the “analgesic effect in hot plate test” value in the series on CD-1 mice [2] (peptides 0.1 and 1 mg/kg i.v.) is listed as “did not affect the pain sensitivity in this test”. Also, the “anti-inflammatory effect, positive control” value in the series on CD-1 mice [3] is “reduced inflammation more rapidly (1–24 h range)”.
For `Cc1c(N(C)CS(=O)(=O)O)c(=O)n(-c2ccccc2)n1C` [Metamizole sodium], in the series on CD-1 mice [2] (500 mg/kg i.p. 30 min before testing), the “increase in latent time of licking both front and hind paws” value was “more than 1.5 times”.
For `N=C(N)NC(=O)c1nc(Cl)c(N)nc1N` [amiloride], the 50% inhibitory concentration (IC50) in [4] was 5000 to 100000 nM.
Consider APETx2, for which, in the series with ASIC1b, the “effect on ASIC1b” value is “potentiation”. Besides, the “locomotion and CNS-mediated behavior” value in series [5] is “did not impair locomotion and the CNS-mediated behavior in the open field test”. Moreover, the antihyperalgesia result in series [6] is recorded as “induces antihyperalgesia in an acid-induced muscle pain model”. Moreover, the 50% inhibitory concentration (IC50) in the series with ASIC3 (ref [20], read-out: IC50, ASIC3) is 37 to 63 nM. Also, the effect on edema result in series [7] (ref [34]) is given as “partially reduces edema”. The NaV1.8 inhibition entry in the series on NaV1.8 is “inhibition”. In addition, the hERG inhibition entry in the series with hERG channels was “ability to inhibit hERG channels”. The “effect on ASIC2a” value in the series on ASIC2a was “potentiation”.
With “PcTx1: ICK-peptide from the tarantula Psalmopoeus cambridgei”, the anxiety levels result in the series with rats is recorded as “increases anxiety levels in rats”. Also, the antinociceptive effect entry in series [7] (ref [23]) was “strong antinociceptive effect in the acute and neuropathic pain models”. For the same compound, in the series with ASIC1a, the concentration for half-maximal inhibition (IC50) was 0.3 to 3.7 nM. In addition, the neuroprotection after stroke entry in [8] is recorded as “ineffective”.

Broadly, the IC50 is the concentration that gives 50% inhibition.
